Patent US20230110378A1, “MONOBACTAM COMPOUND AND USE THEREOF” (EVOPOINT BIOSCIENCES CO., LTD., priority 2019, published 2023)
Values after ≈ are worked out from the molar mass of the structure shown.

Tests used:
Experiment in all cases: Minimum inhibitory concentration (broth microdilution, CLSI)
Type in all cases: cell-based
[1] = test system: Proteus mirabilis HDBPM 40; conditions: HDBPM40
Experimental: (§1) 103 bacterial strains used for the minimum inhibitory concentration test were frozen in a −80° C. ULT freezer and thawed 2 days before use. A small amount of frozen microorganism bacteria were scraped using a sterile inoculating loop, streaked onto a suitable solid culture dish for inoculation, and then cultured for about 20 h at 35 t 2° C. in a normal incubator. • Proteus mirabilis HDBPM 40: MA, normal atmospheric environment • The remaining 102 strains of bacteria: TSA, normal atmospheric environment
(§2) 5-10 colonies with similar morphology were picked from the culture dish using a sterile inoculating loop and then re-streaked onto a corresponding solid culture dish. Then the dish was incubated in a normal incubator at 35 t 2° C. for about 20 h.
(§3) 5-10 single microbial colonies were picked from the solid culture dish, resuspended in 500 μL of sterile normal saline (0.9% NaCl), and adjusted to an OD600 of about 0.15 with a spectrophotometer.
(§4) The bacteria were then diluted 300-fold with 1.02×CAMHB to an inoculation concentration of 2×10^5 CFU/mL.
(§5) • There were a total of 3 assay plate patterns, one of which was used for each assay. • 8 rows of the assay plate (rows A-H) were for 8 test compounds, respectively. The highest test concentration of the compounds was 16, 32 or 64 μg/mL, and each compound was diluted 2-fold. • Growth control (GC): a medium containing microbial inoculum (1.02×CAMHB) and dimethylsulfoxide (DMSO) but no compound.
(§6) The test and reference compounds were dissolved in DMSO or H2O to prepare 6.4 mg/mL stock solutions. The stock solutions were diluted to prepare standby solutions with certain concentrations, and the volumes of the standby solutions were determined according to the experimental design. Corresponding volumes of the standby solutions were transferred to the starting wells of a dilution plate (A1-H1), and half the starting-well volume of DMSO to the other wells. Each compound was diluted 2-fold sequentially from column 1 to column 11 (e.g., transferring 30 μL of DMSO to columns 2-12 first, then pipetting 30 μL of the compounds from column 1 to column 2 and mixing them well, then pipetting 30 μL of the compounds from column 2 to column 3 and mixing them well, then pipetting 30 μL of the compounds from column 3 to column 4 and mixing them well, and so on to column 11).
(§7) 1 or 2 μL of the compounds and DMSO were transferred from the compound plate to corresponding wells of the assay plates.
(§8) 98 μL of corresponding bacterial inocula were added to the assay plates.
(§9) After addition, the assay plates were covered with sterile covers. The mixtures in the assay plates were centrifuged in a centrifuge at 800 rpm for 30 s, mixed well on a microplate shaker at 400 rpm for 1 min, and incubated in a normal incubator at 35 t 2° C. for 20-24 h.
(§10) The assay plates were placed on a plate reading device, and the speculum was adjusted to observe and record the growth condition of bacteria in each well. In the mean time, each assay plate was photographed with QCount system.
(§11) The minimum inhibitory concentration of each compound was recorded by reference to guidelines from the Clinical and Laboratory Standards Institute.
(§12) The minimum inhibitory concentrations of the compounds against experimental strains were tested in this study by reference to the medium microdilution method as indicated by the Clinical and Laboratory Standards Institute. Compounds were diluted two-fold in 96-well plates from the highest detection concentration of 16, 32 or 64 μg/mL. The bacterial inocula in the assay plates were thawed from corresponding medium plates and diluted in 1.02×CAMHB, while growth controls (GC wells) were set up in the assay plates. The minimum inhibitory concentration of each compound against different bacteria was observed and recorded after the assay plates were incubated in a normal incubator at 35 t 2° C. for about 20 h. The minimum inhibitory concentration values for the different compounds are listed in the list below.

[2] = test system: Escherichia coli HDBEC 30016; conditions: HDBEC30016
Experimental: as §1, §2, §3, §4, §5, §6, §7, §8, §9, §10, §11, §12

[3] = test system: Pseudomonas aeruginosa HDBPA 5679; conditions: HDBPA5679
Experimental: as §1, §2, §3, §4, §5, §6, §7, §8, §9, §10, §11, §12

[4] = test system: Klebsiella pneumoniae HDBKP 30006; conditions: HDBKP30006
Experimental: as §1, §2, §3, §4, §5, §6, §7, §8, §9, §10, §11, §12

[5] = test system: Escherichia coli HDBEC 30008; conditions: HDBEC30008
Experimental: as §1, §2, §3, §4, §5, §6, §7, §8, §9, §10, §11, §12

[6] = test system: Klebsiella pneumoniae HDBKP 9249; conditions: HDBKP9249
Experimental: as §1, §2, §3, §4, §5, §6, §7, §8, §9, §10, §11, §12

[7] = test system: Klebsiella pneumoniae HDBKP 9153; conditions: HDBKP9153
Experimental: as §1, §2, §3, §4, §5, §6, §7, §8, §9, §10, §11, §12

[8] = test system: Escherichia coli HDBEC 30048; conditions: HDBEC30048
Experimental: as §1, §2, §3, §4, §5, §6, §7, §8, §9, §10, §11, §12

[9] = test system: Enterobacter cloacae HDBECL 30030; conditions: HDBECL30030
Experimental: as §1, §2, §3, §4, §5, §6, §7, §8, §9, §10, §11, §12

| SMILES | MIC [1] | MIC [2] | MIC [3] | MIC [4] | MIC [5] | MIC [6] | MIC [7] | MIC [8] | MIC [9] |
| --- | --- | --- | --- | --- | --- | --- | --- | --- | --- |
| CC(C)(O/N=C(\C(=O)N[C@H]1C(=O)N(S(=O)(=O)O)[C@H]1CNC(=O)c1cc([C@@H]2CCN(C(=O)c3cc(=O)c(O)cn3O)C2)no1)c1csc(N)n1)C(=O)O [Compound I-21] | < 4 µg/mL | > 16 µg/mL | < 4 µg/mL | > 16 µg/mL | < 4 µg/mL | > 16 µg/mL | < 4 µg/mL | < 4 µg/mL | < 4 µg/mL |
| C[n+]1cc(-c2ncc(C(=O)NC[C@@H]3[C@H](NC(=O)/C(=N\OC(C)(C)C(=O)O)c4csc(N)n4)C(=O)N3S(=O)(=O)O)s2)cn1CCCNC(=N)N [Compound I-11] | < 4 µg/mL | 8 to 16 µg/mL | > 16 µg/mL | < 4 µg/mL | < 4 µg/mL | < 4 µg/mL | < 4 µg/mL | 8 to 16 µg/mL | < 4 µg/mL |
| CC(C)(O/N=C(\C(=O)N[C@@H]1C(=O)N(S(=O)(=O)O)[C@@H]1CNC(=O)c1cc(-c2cc[n+](CCN)cc2)no1)c1csc(N)n1)C(=O)O [Compound I-4] | < 4 µg/mL | > 16 µg/mL | > 16 µg/mL | > 16 µg/mL | 4 to 8 µg/mL | < 4 µg/mL | > 16 µg/mL | > 16 µg/mL | 4 to 8 µg/mL |
| C[n+]1cc(-c2ncc(C(=O)NC[C@@H]3[C@H](NC(=O)/C(=N\OC(C)(C)C(=O)O)c4csc(N)n4)C(=O)N3S(=O)(=O)O)s2)cn1CC(N)CN (stereo partly drawn) [Compound I-9] | < 4 µg/mL | > 16 µg/mL | > 16 µg/mL | 4 to 8 µg/mL | < 4 µg/mL | < 4 µg/mL | 8 to 16 µg/mL | > 16 µg/mL | < 4 µg/mL |
| CC(C)(O/N=C(\C(=O)N[C@@H]1C(=O)N(S(=O)(=O)O)[C@@H]1CNC(=O)c1cc([C@@H]2CCN(CCNc3ccc(O)c(O)c3Cl)C2)no1)c1csc(N)n1)C(=O)O [Compound I-36] | < 4 µg/mL | 4 to 8 µg/mL (≈ 5 to 10 µM) | < 4 µg/mL | 8 to 16 µg/mL (≈ 10 to 20 µM) | < 4 µg/mL | < 4 µg/mL | < 4 µg/mL | < 4 µg/mL | < 4 µg/mL |
| Cc1c(C(=O)NCCN2CC[C@@H](c3cc(C(=O)NC[C@@H]4[C@H](NC(=O)/C(=N\OC(C)(C)C(=O)O)c5csc(N)n5)C(=O)N4S(=O)(=O)O)on3)C2)n(O)c(C)c(O)c1=O [Compound I-45] | < 4 µg/mL | 8 to 16 µg/mL (≈ 9.54 to 19.1 µM) | < 4 µg/mL | 8 to 16 µg/mL (≈ 9.54 to 19.1 µM) | < 4 µg/mL | 8 to 16 µg/mL (≈ 9.54 to 19.1 µM) | < 4 µg/mL | < 4 µg/mL | < 4 µg/mL |
| C[n+]1cc(-c2ncc(C(=O)NC[C@@H]3[C@H](NC(=O)/C(=N\OC(C)(C)C(=O)O)c4nsc(N)n4)C(=O)N3S(=O)(=O)O)s2)cn1CCCN [Compound I-16] | < 4 µg/mL | > 16 µg/mL | > 16 µg/mL | > 16 µg/mL | 8 to 16 µg/mL | 8 to 16 µg/mL | > 16 µg/mL | > 16 µg/mL | > 16 µg/mL |
| CC(C)(O/N=C(\C(=O)N[C@H]1C(=O)N(S(=O)(=O)O)[C@H]1CNC(=O)c1cc([C@@H]2CC[N+](C)(CCNC(=O)c3ccc(O)c(O)c3Cl)C2)no1)c1csc(N)n1)C(=O)O (stereo partly drawn) [Compound I-20] | < 4 µg/mL | > 16 µg/mL | 8 to 16 µg/mL | > 16 µg/mL | < 4 µg/mL | > 16 µg/mL | 8 to 16 µg/mL | 8 to 16 µg/mL | < 4 µg/mL |
| C[N+]1(CCNC(=O)c2ccc(O)c(O)c2Cl)CC[C@@H](c2cc(C(=O)NC[C@@H]3[C@H](NC(=O)/C(=N\OC4(C(=O)O)CC4)c4csc(N)n4)C(=O)N3S(=O)(=O)O)on2)C1 (stereo partly drawn) [Compound I-24] | < 4 µg/mL | 8 to 16 µg/mL | < 4 µg/mL | 8 to 16 µg/mL | < 4 µg/mL | < 4 µg/mL | < 4 µg/mL | < 4 µg/mL | < 4 µg/mL |
| CC(C)(O/N=C(\C(=O)N[C@H]1C(=O)N(S(=O)(=O)O)[C@H]1CNC(=O)c1cc([C@@H]2CCN(C(=O)c3ccc(O)c(O)c3Cl)C2)no1)c1csc(N)n1)C(=O)O [Compound I-18] | < 4 µg/mL | 8 to 16 µg/mL (≈ 10.2 to 20.4 µM) | 4 to 8 µg/mL (≈ 5.09 to 10.2 µM) | > 16 µg/mL | < 4 µg/mL | > 16 µg/mL | 4 to 8 µg/mL (≈ 5.09 to 10.2 µM) | < 4 µg/mL | < 4 µg/mL |
| C[n+]1cc(-c2ncc(C(=O)NC[C@@H]3[C@H](NC(=O)/C(=N\OC(C)(C)C(=O)O)c4csc(N)n4)C(=O)N3S(=O)(=O)O)s2)cn1CCCNC(=O)c1cc(=O)c(O)cn1O [Compound I-12] | < 4 µg/mL | < 4 µg/mL | < 4 µg/mL | 8 to 16 µg/mL | < 4 µg/mL | 4 to 8 µg/mL | < 4 µg/mL | < 4 µg/mL | < 4 µg/mL |
| CC(C)(O/N=C(\C(=O)N[C@@H]1C(=O)N(S(=O)(=O)O)[C@@H]1CNC(=O)c1cnc([C@@H]2CC[N+](C)(C[C@H](N)CNC(=O)c3ccc(O)c(O)c3Cl)C2)s1)c1csc(N)n1)C(=O)O (stereo partly drawn) [Compound I-38] | < 4 µg/mL | < 4 µg/mL | < 4 µg/mL | 8 to 16 µg/mL | < 4 µg/mL | 8 to 16 µg/mL | < 4 µg/mL | < 4 µg/mL | < 4 µg/mL |
| Cc1c(O)c(=O)cc(C(=O)NCCCn2cc(-c3ncc(C(=O)NC[C@@H]4[C@H](NC(=O)/C(=N\OC(C)(C)C(=O)O)c5csc(N)n5)C(=O)N4S(=O)(=O)O)s3)cn2)n1O [Compound I-46] | < 4 µg/mL | < 4 µg/mL | < 4 µg/mL | 8 to 16 µg/mL (≈ 9.39 to 18.8 µM) | < 4 µg/mL | 8 to 16 µg/mL (≈ 9.39 to 18.8 µM) | < 4 µg/mL | < 4 µg/mL | < 4 µg/mL |
| C[n+]1cc(-c2cc(C(=O)NC[C@@H]3[C@H](NC(=O)/C(=N\OC(C)(C)C(=O)O)c4csc(N)n4)C(=O)N3S(=O)(=O)O)on2)cn1CCCN [Compound I-1] | < 4 µg/mL | > 16 µg/mL | > 16 µg/mL | 4 to 8 µg/mL | 4 to 8 µg/mL | < 4 µg/mL | > 16 µg/mL | > 16 µg/mL | < 4 µg/mL |
| CC(C)(O/N=C(\C(=O)N[C@@H]1C(=O)N(S(=O)(=O)O)[C@@H]1CNC(=O)c1cc([C@@H]2CCN(CCNC(=O)c3cc(=O)c(O)c[nH]3)C2)no1)c1csc(N)n1)C(=O)O [Compound I-39] | < 4 µg/mL | > 16 µg/mL | < 4 µg/mL | 8 to 16 µg/mL (≈ 10.1 to 20.1 µM) | < 4 µg/mL | 8 to 16 µg/mL (≈ 10.1 to 20.1 µM) | < 4 µg/mL | < 4 µg/mL | < 4 µg/mL |
| CC(C)(O/N=C(\C(=O)N[C@@H]1C(=O)N(S(=O)(=O)O)[C@@H]1CNC(=O)c1cc([C@@H]2CCN(CCNC(=O)c3cc(=O)c(O)cn3O)C2)no1)c1csc(N)n1)C(=O)O [Compound I-40] | < 4 µg/mL | < 4 µg/mL | < 4 µg/mL | 8 to 16 µg/mL (≈ 9.87 to 19.7 µM) | < 4 µg/mL | 8 to 16 µg/mL (≈ 9.87 to 19.7 µM) | < 4 µg/mL | < 4 µg/mL | < 4 µg/mL |
